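Test compounds were applied to cells in 96-well plates for 48 hours at 5 doses. GI50: concentration for 50% inhibition of growth.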 Active and inactive are the calls of the source. Cut-off read from the data, not from the text of the source: active = GI50 up to about 1.1 µM and inactive = higher.
Legend:
Test in all cases: growth of human tumour cells (NCI), 48 h
PC-3 = system: PC-3
RXF 393 = system: RXF 393
OVCAR-4 = system: OVCAR-4
LOX IMVI = system: LOX IMVI
MOLT-4 = system: MOLT-4
A549 = system: A549
SF-295 = system: SF-295
MDA-N = system: MDA-N
HCC 2998 = system: HCC 2998
NCI-H23 = system: NCI-H23
CAKI-1 = system: CAKI-1
HCT-15 = system: HCT-15
HT-29 = system: HT-29
TK-10 = system: TK-10
UACC-62 = system: UACC-62
SW-620 = system: SW-620
OVCAR-8 = system: OVCAR-8
UO-31 = system: UO-31
MDA-MB-231 = system: MDA-MB-231
NCI-H522 = system: NCI-H522
MDA-MB-435 = system: MDA-MB-435
SR = system: SR
HCT-116 = system: HCT-116
EKVX = system: EKVX
SN12C = system: SN12C
SK-MEL-2 = system: SK-MEL-2
SNB-19 = system: SNB-19
OVCAR-5 = system: OVCAR-5
BT-549 = system: BT-549
SK-MEL-28 = system: SK-MEL-28
Hs-578T = system: Hs-578T
T47D = system: T47D
KM12 = system: KM12
UACC-257 = system: UACC-257
HOP-92 = system: HOP-92
A498 = system: A498
786-0 = system: 786-0
IGROV-1 = system: IGROV-1
NCI/ADR-RES = system: NCI/ADR-RES
MCF7 = system: MCF7
Malme-3M = system: Malme-3M
NCI-H460 = system: NCI-H460
DU-145 = system: DU-145
HOP-62 = system: HOP-62
K562 = system: K562
CCRF-CEM = system: CCRF-CEM
OVCAR-3 = system: OVCAR-3
SF-268 = system: SF-268
ACHN = system: ACHN
NCI-H226 = system: NCI-H226
U-251 = system: U-251
SNB-75 = system: SNB-75
M14 = system: M14
SK-MEL-5 = system: SK-MEL-5
COLO 205 = system: COLO 205
SK-OV-3 = system: SK-OV-3
SF-539 = system: SF-539
RPMI-8226 = system: RPMI-8226

Compound: N=C(N)c1ccc(/C=C/c2ccc(C(=N)N)cc2)cc1
- GI50 (PC-3): 64.9 µM (inactive)
- GI50 (RXF 393): > 100 µM (inactive)
- GI50 (OVCAR-4): > 100 µM (inactive)
- GI50 (LOX IMVI): > 100 µM (inactive)
- GI50 (MOLT-4): > 100 µM (inactive)
- GI50 (A549): 39.7 µM (inactive)
- GI50 (SF-295): 34.4 µM (inactive)
- GI50 (MDA-N): > 100 µM (inactive)
- GI50 (HCC 2998): 90.8 µM (inactive)
- GI50 (NCI-H23): 78.5 µM (inactive)
- GI50 (CAKI-1): 94.6 µM (inactive)
- GI50 (HCT-15): > 100 µM
- GI50 (HT-29): 93.1 µM (inactive)
- GI50 (TK-10): 24.5 µM (inactive)
- GI50 (UACC-62): 97.9 µM (inactive)
- GI50 (SW-620): 96.8 µM (inactive)
- GI50 (OVCAR-8): 85.7 µM (inactive)
- GI50 (UO-31): > 100 µM (inactive)
- GI50 (MDA-MB-231): > 100 µM (inactive)
- GI50 (NCI-H522): 63.2 µM (inactive)
- GI50 (MDA-MB-435): > 100 µM (inactive)
- GI50 (SR): > 100 µM (inactive)
- GI50 (HCT-116): > 100 µM (inactive)
- GI50 (EKVX): 46.3 µM (inactive)
- GI50 (SN12C): 22.7 µM (inactive)
- GI50 (SK-MEL-2): 27.1 µM (inactive)
- GI50 (SNB-19): > 100 µM (inactive)
- GI50 (OVCAR-5): 81.8 µM (inactive)
- GI50 (BT-549): > 100 µM (inactive)
- GI50 (SK-MEL-28): 45.8 µM (inactive)
- GI50 (Hs-578T): 48 µM (inactive)
- GI50 (T47D): > 100 µM (inactive)
- GI50 (KM12): > 100 µM (inactive)
- GI50 (UACC-257): 65.9 µM (inactive)
- GI50 (HOP-92): > 100 µM (inactive)
- GI50 (A498): 14.9 µM (inactive)
- GI50 (786-0): 62.1 µM (inactive)
- GI50 (IGROV-1): 70.8 µM (inactive)
- GI50 (NCI/ADR-RES): 77.3 µM (inactive)
- GI50 (MCF7): 96.6 µM (inactive)
- GI50 (Malme-3M): 53 µM (inactive)
- GI50 (NCI-H460): 34.5 µM (inactive)
- GI50 (DU-145): > 100 µM (inactive)
- GI50 (HOP-62): 41.2 µM (inactive)
- GI50 (K562): 49.8 µM (inactive)
- GI50 (CCRF-CEM): > 100 µM (inactive)
- GI50 (OVCAR-3): > 100 µM (inactive)
- GI50 (SF-268): > 100 µM (inactive)
- GI50 (ACHN): > 100 µM (inactive)
- GI50 (NCI-H226): > 100 µM (inactive)
- GI50 (U-251): 33.5 µM (inactive)
- GI50 (SNB-75): 32.1 µM (inactive)
- GI50 (M14): > 100 µM (inactive)
- GI50 (SK-MEL-5): 29.1 µM (inactive)

Compound: O=C(/C=C/c1cccc(Oc2ccccc2)c1)NCc1ccc(C(=O)NCc2ccccc2)cc1
- GI50 (PC-3): > 100 µM (inactive)
- GI50 (RXF 393): 12.2 µM (inactive)
- GI50 (OVCAR-4): 31 µM (inactive)
- GI50 (LOX IMVI): > 100 µM (inactive)
- GI50 (MOLT-4): > 100 µM (inactive)
- GI50 (A549): > 100 µM (inactive)
- GI50 (SF-295): 21.8 µM (inactive)
- GI50 (MDA-N): > 100 µM (inactive)
- GI50 (HCC 2998): > 100 µM (inactive)
- GI50 (NCI-H23): 31 µM (inactive)
- GI50 (COLO 205): > 100 µM (inactive)
- GI50 (CAKI-1): 43.8 µM (inactive)
- GI50 (HCT-15): > 100 µM
- GI50 (HT-29): 17.3 µM (inactive)
- GI50 (TK-10): 46.5 µM (inactive)
- GI50 (SK-OV-3): 4.55 µM (inactive)
- GI50 (UACC-62): 79.8 µM (inactive)
- GI50 (SW-620): > 100 µM (inactive)
- GI50 (OVCAR-8): 14.1 µM (inactive)
- GI50 (UO-31): > 100 µM (inactive)
- GI50 (MDA-MB-231): 52.2 µM (inactive)
- GI50 (NCI-H522): 98.9 µM (inactive)
- GI50 (SF-539): 0.865 µM (active)
- GI50 (MDA-MB-435): > 100 µM (inactive)
- GI50 (SR): > 100 µM (inactive)
- GI50 (RPMI-8226): > 100 µM (inactive)
- GI50 (HCT-116): 50.6 µM (inactive)
- GI50 (EKVX): > 100 µM (inactive)
- GI50 (SN12C): > 100 µM (inactive)
- GI50 (SK-MEL-2): 26 µM (inactive)
- GI50 (SNB-19): 32.4 µM (inactive)
- GI50 (OVCAR-5): > 100 µM (inactive)
- GI50 (BT-549): 60.1 µM (inactive)
- GI50 (SK-MEL-28): > 100 µM (inactive)
- GI50 (Hs-578T): > 100 µM (inactive)
- GI50 (T47D): > 100 µM (inactive)
- GI50 (KM12): > 100 µM (inactive)
- GI50 (UACC-257): > 100 µM (inactive)
- GI50 (HOP-92): 37.8 µM (inactive)
- GI50 (A498): 51.5 µM (inactive)
- GI50 (786-0): 29 µM (inactive)
- GI50 (IGROV-1): 79.8 µM (inactive)
- GI50 (NCI/ADR-RES): 35.3 µM (inactive)
- GI50 (MCF7): > 100 µM (inactive)
- GI50 (Malme-3M): 41.3 µM (inactive)
- GI50 (NCI-H460): > 100 µM (inactive)
- GI50 (DU-145): > 100 µM (inactive)
- GI50 (HOP-62): 2.96 µM (inactive)
- GI50 (K562): > 100 µM (inactive)
- GI50 (CCRF-CEM): > 100 µM (inactive)
- GI50 (OVCAR-3): 68.5 µM (inactive)
- GI50 (SF-268): > 100 µM (inactive)
- GI50 (ACHN): 71 µM (inactive)
- GI50 (NCI-H226): 27.5 µM (inactive)
- GI50 (U-251): 38.1 µM (inactive)
- GI50 (SNB-75): 12.1 µM (inactive)
- GI50 (M14): > 100 µM (inactive)
- GI50 (SK-MEL-5): > 100 µM (inactive)

Compound: O1C2C1C1OC1C1OC1C1OC21 (stereo unspecified)
- GI50 (PC-3): > 100 µM (inactive)
- GI50 (OVCAR-4): > 100 µM (inactive)
- GI50 (LOX IMVI): > 100 µM (inactive)
- GI50 (MOLT-4): > 100 µM (inactive)
- GI50 (A549): > 100 µM (inactive)
- GI50 (SF-295): > 100 µM (inactive)
- GI50 (MDA-N): > 100 µM (inactive)
- GI50 (HCC 2998): > 100 µM (inactive)
- GI50 (NCI-H23): > 100 µM (inactive)
- GI50 (COLO 205): > 100 µM (inactive)
- GI50 (CAKI-1): > 100 µM (inactive)
- GI50 (HCT-15): > 100 µM
- GI50 (HT-29): > 100 µM (inactive)
- GI50 (TK-10): > 100 µM (inactive)
- GI50 (SK-OV-3): > 100 µM (inactive)
- GI50 (UACC-62): > 100 µM (inactive)
- GI50 (OVCAR-8): > 100 µM (inactive)
- GI50 (UO-31): > 100 µM (inactive)
- GI50 (MDA-MB-231): > 100 µM (inactive)
- GI50 (NCI-H522): > 100 µM (inactive)
- GI50 (MDA-MB-435): > 100 µM (inactive)
- GI50 (SR): > 100 µM (inactive)
- GI50 (HCT-116): > 100 µM (inactive)
- GI50 (EKVX): > 100 µM (inactive)
- GI50 (SN12C): > 100 µM (inactive)
- GI50 (SK-MEL-2): > 100 µM (inactive)
- GI50 (SNB-19): > 100 µM (inactive)
- GI50 (OVCAR-5): > 100 µM (inactive)
- GI50 (BT-549): > 100 µM (inactive)
- GI50 (SK-MEL-28): > 100 µM (inactive)
- GI50 (Hs-578T): > 100 µM (inactive)
- GI50 (T47D): > 100 µM (inactive)
- GI50 (KM12): > 100 µM (inactive)
- GI50 (UACC-257): > 100 µM (inactive)
- GI50 (HOP-92): > 100 µM (inactive)
- GI50 (A498): > 100 µM (inactive)
- GI50 (NCI/ADR-RES): > 100 µM (inactive)
- GI50 (MCF7): > 100 µM (inactive)
- GI50 (Malme-3M): > 100 µM (inactive)
- GI50 (DU-145): > 100 µM (inactive)
- GI50 (HOP-62): > 100 µM (inactive)
- GI50 (K562): > 100 µM (inactive)
- GI50 (SF-268): > 100 µM (inactive)
- GI50 (ACHN): > 100 µM (inactive)
- GI50 (NCI-H226): > 100 µM (inactive)
- GI50 (U-251): > 100 µM (inactive)
- GI50 (SNB-75): 11.6 µM (inactive)
- GI50 (M14): > 100 µM (inactive)
- GI50 (SK-MEL-5): > 100 µM (inactive)
